According to article PMC12642047, “Marine-derived Acremonium strain prioritization using untargeted metabolomics approach for the identification of cytotoxic cyclic depsipeptides” (BMC Biotechnology, 2025):
Where two headings read alike, the source gives them in different places. *1 amine or outer side, *2 acyl side, *3 side chain or, on linkers, in order; H or OH if unused. Where a SMILES comes first, the peptide text is derived from it. [ ]: non-standard residue; d: D form. ξ: configuration not given here. Pentanoyl(2-O,4-OH,5-Cl) = O=C(O)C(O)CC(O)CCl; NMeI = CC[CH](C)[CH](NC)C(=O)O; X1 = CC1CCN([*:1])C1C(=O)[*:2]; ξLac(3-iPr) = CC(C)CC(O)C(=O)O; NMeA = CN[CH](C)C(=O)O; βAla = NCCC(=O)O

Tests used:
[1] = test system: MRC-5 (normal lung fibroblast); assay: MTS cytotoxicity assay (CellTiter 96 AQueous One), compounds, 72 h; assay type: cell-based; details: Homo sapiens, MRC5, MRC-5 normal lung fibroblasts
Description: (§1) Compounds 1 − 5 were tested for their cytotoxic effects against several cancer cell lines, including MOLM-13 (acute myeloid leukemia), MV-4-11 (biphenotypic B myelomonocytic leukemia), THP-1 (acute monocytic leukemia), A2058 (human melanoma), MCF7 (human breast adenocarcinoma), and non-cancerous MRC-5 (normal lung fibroblast) using an MTS based CellTiter 96® AQueous One Solution Assay. In short, the cells were cultured in appropriate media supplemented with 10% fetal bovine serum (FBS): MOLM-13, MV-4-11 cells in RPMI medium, THP-1 cells in RPMI medium with ultra-low endotoxin FBS, MCF7 and MRC-5 in MEM Eagle medium along with other amino acid supplements, and A2058 cells in DMEM medium. After harvesting, they were seeded into 96-well plates. The cells were then treated with the test compounds at various concentrations and incubated for 72 h. Following the incubation period, an MTS assay was conducted, and the absorbance of the solution was measured using a microplate reader spectrophotometer (Tecan spark plate reader) at a wavelength of 490 nm. The half-maximum inhibitory concentration (IC50) values were calculated using the drc_3.0–1 package in R (Supplementary page S60-S61). DMSO (10%) was used as the positive control, and cell culture media as the negative control. All samples were tested in triplicate.
(§2) The results were plotted in a dose-response curve as shown in Figure S97 and the half-maximum inhibitory concentration (IC50) values were calculated using R. A 4-parameter logistic (4PL) dose-response model was applied to analyse the relationship between the concentration and the observed response (absorbance at 490 nm). […] The model was fitted to the experimental data using the drm function from the drc_3.0-1 package in R and IC50 values were determined as the concentration (μM) corresponding to 50% cell survival.

[2] = test system: MV-4-11 (biphenotypic B myelomonocytic leukemia); assay: as above; assay type: cell-based; details: Homo sapiens, MV4-11, MV-4-11 cells
Description: as §1, §2

[3] = test system: THP-1 (acute monocytic leukemia); assay: as above; assay type: cell-based; details: Homo sapiens, THP-1 cells
Description: as §1, §2

[4] = test system: MCF7 (human breast adenocarcinoma); assay: as above; assay type: cell-based; details: MCF7 cells
Description: as §1, §2

[5] = test system: A2058 (human melanoma); assay: as above; assay type: cell-based; details: A2058 cells
Description: as §1, §2

[6] = test system: MOLM-13 (acute myeloid leukemia); assay: as above; assay type: cell-based; details: Homo sapiens, MOLM-13 cells
Description: as §1, §2

[7] = test system: insects; parameters: method as in doi:10.1021/np9601216; details: cited from earlier work
[8] = test system: PDGF-BB/PDGFR-ββ signalling; parameters: method as in PMID 27322468; details: cited from earlier work
[9] = test system: MCF7; parameters: method as in PMID 30572686; details: read-out: IC50 MCF7 (previously reported), cited from earlier work
[10] = test system: HL-60 (acute promyelocytic leukemia); parameters: method as in PMID 30572686; details: HL-60 cells; read-out: IC50 HL-60 (previously reported); cited from earlier work
[11] = test system: erythropoietin gene expression; parameters: method as in PMID 9514014; details: cited from earlier work
[12] = test system: plants; details: cited from earlier work

With `CCC(C)C1NC(=O)C2C(C)CCN2C(=O)C(CC(C)C)OC(=O)CCNC(=O)C(C)N(C)C(=O)C(C(C)CC)N(C)C1=O` (stereo not shown) [Compound 5, homodestcardin] (cyclo([X1]I[NMeI][NMeA][βAla][ξLac(3-iPr)]); configuration not given here) the IC50 [1] was 5600 nM, the IC50 [2] was 12500 nM and the IC50 [3] was 16000 nM. The IC50 [4] was 2100 nM, the IC50 [5] was 2600 nM and the IC50 [6] was 3600 nM.
In the case of `C=CCC1OC(=O)CCNC(=O)C(C)N(C)C(=O)C(C(C)CC)N(C)C(=O)C(C(C)CC)NC(=O)C2C(C)CCN2C1=O` (stereo not shown) [Compound 3, destruxin-A5], the Entomopathogenic activity [7] is listed as “entomopathogenic activity”, the “Inhibition of PDGF-BB/PDGFR-ββ signalling” value [8] is listed as “selectively inhibit” and the IC50 [1] is listed as 15200 nM. The IC50 [2] was 7200 nM, the IC50 [3] was 8700 nM and the IC50 [4] was 5200 nM. The IC50 [5] was 6600 nM and the IC50 [6] was 3000 nM.
For `CCC(C)C1NC(=O)C2C(C)CCN2C(=O)C(CC(O)CCl)OC(=O)CCNC(=O)C(C)N(C)C(=O)C(C(C)CC)N(C)C1=O` (stereo not shown) [Compound 2, trichomide D] (cyclo([X1]I[NMeI][NMeA][βAla][Pentanoyl(2-O,4-OH,5-Cl)]); configuration not given here), the IC50 ([9]; MCF7 cell line) is given as 79 nM, the IC50 ([9]; MCF7 cells) is given as 79 nM and the IC50 [1] is given as 1200 nM. It also gave an IC50 [2] of 800 nM, an IC50 [3] of 2100 nM and an IC50 ([4]; value marked * expressed in nM) of 40 nM. For the same molecule, the IC50 ([5]; value marked * expressed in nM) was 40 nM, the IC50 [6] was 500 nM and the IC50 [10] was 107 nM.
In the case of `CCC(C)C1NC(=O)C2CCCN2C(=O)C(CC(O)CCl)OC(=O)CCNC(=O)C(C)N(C)C(=O)C(C(C)CC)N(C)C1=O` (stereo not shown) [Compound 1, destruxin-A4 chlorohydrin] (cyclo([Pentanoyl(2-O,4-OH,5-Cl)]PI[NMeI][NMeA][βAla]); configuration not given here), the IC50 [1] is reported as 2200 nM, the IC50 [2] is reported as 700 nM and the IC50 [3] is reported as 2200 nM. For the same molecule, the IC50 [4] was 800 nM, the IC50 [5] was 1100 nM and the IC50 [6] was 400 nM. The Erythropoietin gene expression [11] was “induced erythropoietin gene expression”.
In the case of `CCC(C)C1NC(=O)C2CCCN2C(=O)C(CC(C)C)OC(=O)CCNC(=O)C(C)N(C)C(=O)C(C(C)CC)N(C)C1=O` (stereo not shown) [Compound 4, homodestruxin B] (cyclo([ξLac(3-iPr)]PI[NMeI][NMeA][βAla]); configuration not given here), the Phytotoxic activity [12] is listed as “phytotoxic activity”, the IC50 [1] is listed as over 40000 nM and the IC50 [2] is listed as 14600 nM. It also gave an IC50 [3] of 16200 nM, an IC50 [4] of 12300 nM and an IC50 [5] of 30200 nM. It also gave an IC50 [6] of 5500 nM.
